Results taken from article PMC3667390 (Cancer immunology, immunotherapy : CII, 2009).

System: peptide-specific CD4 T cells
Type: cell-based, human
Settings: ELIspot and proliferation; peptide 10 μg/ml, CEA protein 1 μg/ml, 20-24 hours; day 15 of in vitro stimulation; three replicates

Which “reactivity of peptide-specific CD4 T cells” value does the source give for MELLLVNKLKWNLAA [Peptide C140] here?
The value was “did not respond”.
